Source: patent publication US11560596B2, “Method for expecting and diagnosing UQCRB-related disease” (Industry-Academic Cooperation Foundation, Yonsei University, priority 2015, dated 2023)

Test system: UQCRB mutant cell strains MT1 and MT2
Assay: MTT colorimetric assay of cell growth after treatment with cholesterol synthesis inhibitors
Format: cell-based
Conditions: FIGS. 11 to 13
From the text: FIG. 11 represents MTT colorimetric assay showing the cell growth of HEK293, MT1, and MT2 cells treated with a cholesterol inhibitor.
FIG. 12 represents MTT colorimetric assay showing the cell growth of HEK293, MT1, and MT2 cells treated with a cholesterol inhibitor.
FIG. 13 represents MTT colorimetric assay showing the cell growth of HEK293, MT1, and MT2 cells treated with a cholesterol inhibitor.
For the purpose of verifying validity for selection of cholesterol metabolic process as a pathway in which UQCRB was participated, a cholesterol synthesis inhibitor was processed in UQCRB mutant cell strains to measure an effect that the cholesterol synthesis inhibitor affects growth of the UQCRB mutant cell strains, and the result thereof was shown in FIGS. 11 to 13.

SMILES: CC[C@H](C)C(=O)O[C@H]1CCC=C2C=C[C@H](C)[C@H](CC[C@@H]3C[C@@H](O)CC(=O)O3)[C@H]21 [Mevastatin]
- growth of the UQCRB mutant cell strains MT1 and MT2: inhibited

SMILES: F/C(COc1ccc2c(c1)[nH]c1ccccc12)=C1/CN2CCC1CC2 [YM-53601]
- growth of the UQCRB mutant cell strains MT1 and MT2: inhibited
